Assay results reported in US9879050B2, “Substituted urea depsipeptide analogs as activators of the CLPP endopeptidase” (priority 2013, dated 2018).
Converted amounts (≈) assume the structure as drawn.

Tests used:
S. aureus USA 300 ΔClpP = assay: Minimal inhibitory concentration, microbroth dilution; assay type: cell-based, Staphylococcus aureus; details: ClpP inactivated strain
Method: (§1) Minimal inhibitory concentrations (“MICs”) were determined using the microbroth dilution method according to Clinical Laboratory Standards Institute (CLSI; National, C.F. C. L. S., Methods for Dilution Antimicrobial Susceptibility Tests for Bacteria Grow aerobically-Seventh Edition: Approved Standard M7-A7, CLSI, Wayne, Pa., USA, 2008) and were read by visual inspection. Two fold serial dilutions of test compound in 100 μL of the appropriate broth media were first prepared in 96-well round bottom microtiter plates (Nalgene Nunc International, Rochester, N.Y., USA). An equivalent volume (100 μL) of bacterial broth inocula containing approximately 10^5 bacterial cfu/mL was added to each well to give final concentrations of test compound starting at 200 μM. The plates were then incubated aerobically at 37° C. All strains were incubated overnight. After incubations, in all cases the MIC was recorded as the lowest concentration of drug that prevented bacterial growth. The bacterial strains for which MIC was determined as described in Table 4.

S. pyogenes ATCC 700294 = assay: as above; assay type: cell-based; details: Streptococcus pyogenes, ATCC700294, read-out: Minimal Inhibitory Concentration S. pyogenes ATCC 700294
Method: (§2) Minimal inhibitory concentrations (“MICs”) were determined using the microbroth dilution method according to Clinical Laboratory Standards Institute (CLSI; National, C.F. C. L. S., Methods for Dilution Antimicrobial Susceptibility Tests for Bacteria Grow aerobically-Seventh Edition: Approved Standard M7-A7, CLSI, Wayne, Pa., USA, 2008) and were read by visual inspection. Two fold serial dilutions of test compound in 100 μL of the appropriate broth media were first prepared in 96-well round bottom microtiter plates (Nalgene Nunc International, Rochester, N.Y., USA). […] The plates were then incubated aerobically at 37° C. All strains were incubated overnight. After incubations, in all cases the MIC was recorded as the lowest concentration of drug that prevented bacterial growth. The bacterial strains for which MIC was determined as described in Table 4.

S. pneumoniae R6 = assay: as above; assay type: cell-based; details: Streptococcus pneumoniae, R6, read-out: Minimal Inhibitory Concentration S. pneumoniae R6
Method: as §2

Sa-ClpP [1] = molecular target: T1, Sa-ClpP (Staphylococcus aureus, UniProt Q2G036); assay: ClpP activation, EnzCheck Protease Assay with Bodipy-FL casein (second described method); assay type: biochemical, S. aureus; details: read-out: ClpP Activation EC50 (converted)
T1 construct: made in house; host or cells: E. coli BL21 (DE3)
T1 sequence (Q2G036 whole entry): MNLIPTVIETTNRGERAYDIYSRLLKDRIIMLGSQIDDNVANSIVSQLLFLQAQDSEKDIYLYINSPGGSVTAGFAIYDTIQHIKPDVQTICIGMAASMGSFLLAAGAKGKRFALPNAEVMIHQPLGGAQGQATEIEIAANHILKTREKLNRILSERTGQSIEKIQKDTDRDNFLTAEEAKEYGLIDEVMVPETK
Method: Alternatively, the assay was carried out using EnzCheck Protease Assay (Molecular Probes, Catalog #E6638). The assay was performed in black 384 well, flat bottom, low volume plates (Greiner Bio-One, Monroe, N.C., catalog #784076). 10 μL of Tris.HCl buffer, pH 8.0 with 0.01% Triton X-100 was pipetted into each well using a Well-Mate (Thermo Scientific, Waltham, Mass.). 0.4 μL test compounds or controls (2% DMSO v/v) were added to each well using a Biomek FX liquid handling robot (Beckman Coulter, Indianapolis Ind.). After addition of test compounds and controls, 10 μL of master mix containing 2 μM Sa-ClpP and 2 μM substrate (Bodipy-FL labeled casein) in Tris*HCl buffer, pH 8.0 with 0.01% (v/v) Triton X-100, was pipetted into each well. All assays were performed in triplicate, under linear velocity conditions. Increase in fluorescent signal following activation of Sa-ClpP by test compounds and controls was measured over time period of 30 mins using filters with excitation at 485±15 nm and emission at 520±25 nm on a PHERAstar FS Multilabel reader (BMG, Cary, N.C.). […] Data analysis was done by measuring rate of casein degradation over time (slopes). Computed degradation rates (slopes) were normalized to positive (ADEP4) or negative (DMSO) controls. Using nonlinear regression curve fitting EC50 values and % activation were determined using the equation “log [agonist]vs. Response-variable slope (four parameters)-symmetrical” in the program Prism 6 (GraphPad Software, La Jolla, Calif. USA, www.graphpad.com).

Sa-ClpP [2] = molecular target: T1, Sa-ClpP; assay: ADEP displacement fluorescence polarization assay; assay type: binding, S. aureus; details: 1 μM Sa-ClpP, 50 nM FP probe ADEP 2591; read-out: ADEP Displacement IC50
Method: A fluorescence polarization (FP) assay was used to determine the activity of the disclosed compounds in displacing an ADEP analogue from ClpP. Briefly, the assay was performed in black 384 well, flat bottom, low volume plates (Greiner Bio-One, Monroe, N.C., catalog #784076). 20 μL of a pre-equilibrated (1 hr, room temperature) master mix (1 μM Sa-ClpP, 2% DMSO (v/v) and 50 nM FP probe in Tris*HCl, pH 8.0)) was pipetted into each well using a Well-Mate (Thermo Scientific, Waltham, Mass.). Sa-ClpP was prepared as described above for the ClpP activation assay. The FP probe was ADEP 2591 (structure shown above). The ADEP 2591 comprises a TAMRA fluorophore linked to a core based on modified ADEP 2378 via a short alkyl linker. Using pin transfer, approximately 0.4 μL (2% v/v DMSO) of each compound or control was added per well. After addition of compounds and controls, plates were allowed to incubate for an additional 120 minutes at room temperature. All assays were performed in triplicate. Polarization was monitored using an EnVision Multilabel reader (Perkin-Elmer, Waltham, Mass.) by exciting the FP probe at 530±25 nm, and monitoring fluorescence intensity of both parallel and perpendicular polarized light at 579±25 nm. Readout was in millipolarization units (mP).
Signal gain and G factors were determined in wells containing 20 μM ADEP 2378, which had been previously verified (data not shown) as containing completely unbound ADEP 2591. Data collected was normalized to values obtained from positive (20 μM ADEP 2378) or negative (DMSO) controls. Curves were fit with non-linear regression using the equation “log [inhibitor]vs. Response-variable slope (four parameters)-symmetrical” in the program Prism 6 (GraphPad Software, La Jolla, Calif. USA, www.graphpad.com). The structures for ADEP 2378 and ADEP 2591 are shown above. ADEP 2378 is (E)-N-((S)-1-(((2R,6S,8aS,14aS,20S,23aS)-2,6-dimethyl-5,8,14,19,23-pentaoxooctadecahydro-1H,5H,14H,19H-pyrido[2,1-i]dipyrrolo[2,1-c:2′,1′-1][1]oxa[4,7,10,13]tetraazacyclohexadecin-20-yl)amino)-1-oxo-3-phenylpropan-2-yl)pent-2-enamide. ADEP 2591 is 5-(3-(3-((6S,9S,11aS,17S,20aS)-6,10-dimethyl-5,8,11,16,20-pentaoxo-17-((S)-2-((E)-pent-2-enamido)-3-phenylpropanamido)hexadecahydro-1H,5H,16H-dipyrrolo[2,1-c:2′,1′-1][1]oxa[4,7,10,13]tetraazacyclohexadecin-9-yl)propyl)thioureido)-2-(6-(dimethylamino)-3-(dimethyliminio)-3H-xanthen-9-yl)benzoate.

B. subtilis ATCC 23857 = assay: Minimal inhibitory concentration, microbroth dilution; assay type: cell-based; details: Bacillus subtilis, ATCC23857, read-out: Minimal Inhibitory Concentration B. subtilis ATCC 23857
Method: as §1

S. aureus ATCC 29213 = assay: as above; assay type: cell-based; details: Staphylococcus aureus, ATCC29213, read-out: Minimal Inhibitory Concentration S. aureus ATCC 29213
Method: as §1

[3] = Cytotoxicity assay, CellTiter-Glo cell viability; assay type: cell-based; details: African green monkey; Vero cells, 72 hours; read-out: Cytotoxicity IC50
Method: Cytotoxicity was determined by determining the effect of compounds on cell viability. Vero (kidney epithelial cells; ATCC CCL-81) monolayers were trypsinized and 5000 cells/well were seeded (10-15% confluency) into white-wall, flat bottom 96 well microwell plates (Corning) using enriched Dulbecco's Modified Eagle's Medium (Hyclone: DMEM/High Glucose) containing 10% Fetal Bovine Serum (ATCC-30-2020). Plates were incubated overnight at 37° C. in the presence of 5% CO2. Drug-free media was then replaced with media containing serial dilutions of test compound or DMSO carrier. After an additional 72 hours of incubation, viability was indirectly measured using the CellTiter-Glo® Luminescent Cell Viability (Promega) assay. Assay plates were read at peak emission wavelength of 560 nm using a EnVision® Multilabel Plate Reader (Perkin Elmer) or PHERAstar FS Multilabel reader (BMG, Cary, N.C.). […] USA, www.graphpad.com]. For each experiment, compounds were tested in duplicate. IC50 values presented are the range of two biologically independent experiments.

Structure (SMILES) | Minimal Inhibitory Concentration S. aureus USA 300 ΔClpP (S. aureus USA 300 ΔClpP) [µM] | MIC (S. pyogenes ATCC 700294) [µM] | MIC (S. pneumoniae R6) [µM] | EC50 (Sa-ClpP [1]) [µM] | IC50 (Sa-ClpP [2]) [µM] | MIC (B. subtilis ATCC 23857) [µM] | MIC (S. aureus ATCC 29213) [µM] | IC50 at 72 h [3] [µM]
Cc1ccc(NC(=O)N[C@@H](Cc2cc(F)cc(F)c2)C(=O)N[C@H]2COC(=O)C3C[C@H](C)CN3C(=O)[C@H](C)NC(=O)C3CCCCN3C(=O)C3CCCN3C2=O)cc1C (stereo partly drawn) [Compound 48, (S)-3-(3,5-Difluorophenyl)-N-((2S,6S,8aS,14aS,20S,23aS)-2,6-Dimethyl-5,8,14,19,23-Pentaoxooctadecahydro-1H,5H,14H,19H-Pyrido[2,1-I]Dipyrrolo[2,1-C:2′,1′-L][1]Oxa[4,7,10,13]Tetraazacyclohexadecin-20-Yl)-2-(3-(3,4-Dimethylphenyl)Ureido)Propanamide] | 200 | 3.1 (≈ 2.5 µg/mL) | 0.8 (≈ 0.646 µg/mL) | 0.7 ± 0.03 | 8.1 ± 0.3 | 0.2 (≈ 0.162 µg/mL) | 1.6 (≈ 1.29 µg/mL) | 
Cc1ccc(NC(=O)N[C@@H](Cc2cc(F)cc(F)c2)C(=O)N[C@@H]2C(=O)N3CCCC3C(=O)N(C)[C@@H](C)C(=O)N[C@@H](C)C(=O)N3CCCC3C(=O)O[C@H]2C)cc1 (stereo partly drawn) [Compound 25, (2S)-3-(3,5-Difluorophenyl)-N-((6S,9S,11aS,17S,18S)-6,9,10,18-Tetramethyl-5,8,11,16,20-Pentaoxohexadecahydro-1H,5H,16H-Dipyrrolo[2,1-C:2′,1′-L][1]Oxa[4,7,10,13]Tetraazacyclohexadecin-17-Yl)-2-(3-(P-Tolyl)Ureido)Propanamide] | 200 | 1 (≈ 0.768 µg/mL) | 0.254 (≈ 0.195 µg/mL) | 0.48 ± 0.03 | 8.9 ± 0.3 | 0.02 (≈ 0.0154 µg/mL) | 0.78 (≈ 0.599 µg/mL) | 10.8 ± 1
Cc1ccc(NC(=O)N[C@@H](Cc2cc(F)cc(F)c2)C(=O)N[C@H]2COC(=O)C3CC(C)(C)CN3C(=O)[C@H](C)NC(=O)C3CCCCN3C(=O)C3CCCN3C2=O)cc1 (stereo partly drawn) [Compound 49, (S)-3-(3,5-Difluorophenyl)-2-(3-(P-Tolyl)Ureido)-N-((6S,8aS,14aS,20S,23aS)-2,2,6-Trimethyl-5,8,14,19,23-Pentaoxooctadecahydro-1H,5H,14H,19H-Pyrido[2,1-I]Dipyrrolo[2,1-C:2′,1′-L][1]Oxa[4,7,10,13]Tetraazacyclohexadecin-20-Yl)Propanamide] | 100 | 25 (≈ 20.2 µg/mL) | 6.3 (≈ 5.09 µg/mL) | 2.3 ± 0.2 | 12.7 ± 0.2 | 0.4 (≈ 0.323 µg/mL) | 12.5 (≈ 10.1 µg/mL) | 
Cc1ccc(NC(=O)N[C@@H](Cc2cc(F)cc(F)c2)C(=O)N[C@@H]2C(=O)N3CCCC3C(=O)N3CCOCC3C(=O)N[C@@H](C)C(=O)N3C[C@H](C)CC3C(=O)O[C@H]2C)cc1 (stereo partly drawn) [Compound 47, (S)-3-(3,5-Difluorophenyl)-2-(3-(P-Tolyl)Ureido)-N-((6aS,12S,13S,15aS,17R,21S,23aS)-13,17,21-Trimethyl-6,11,15,20,23-Pentaoxooctadecahydro-6H,11H,15H-[1,4]Oxazino[3,4-I]Dipyrrolo[2,1-C:2′,1′-L][1]Oxa[4,7,10,13]Tetraazacyclohexadecin-12-Yl)Propanamide] | >200 | 0.02 (≈ 0.0162 µg/mL) | 0.002 (≈ 0.00162 µg/mL) | 0.4 ± 0.01 | 7.01 ± 0.3 | 0.8 (≈ 0.648 µg/mL) | 0.003 (≈ 0.00243 µg/mL) | 
Cc1ccc(NC(=O)N[C@@H](Cc2cc(F)cc(F)c2)C(=O)N[C@H]2COC(=O)C3C[C@@H](F)CN3C(=O)[C@H](C)NC(=O)C3CCCCN3C(=O)C3CCCN3C2=O)cc1 (stereo partly drawn) [Compound 51, (S)-3-(3,5-Difluorophenyl)-N-((2R,6S,8aS,14aS,20S,23aS)-2-Fluoro-6-Methyl-5,8,14,19,23-Pentaoxooctadecahydro-1H,5H,14H,19H-Pyrido[2,1-I]Dipyrrolo[2,1-C:2′,1′-L][1]Oxa[4,7,10,13]Tetraazacyclohexadecin-20-Yl)-2-(3-(P-Tolyl)Ureido)Propanamide] | >200 | 12.5 (≈ 9.97 µg/mL) | 6.3 (≈ 5.03 µg/mL) | 2.5 ± 0.2 | 9.71 ± 0.3 | > 200 | 12.5 (≈ 9.97 µg/mL) | 
